Reference: US9221900B2, “Methods for identifying safe and functional humanized antibodies” (AC IMMUNE S.A., priority 2010, dated 2015)

Legend:
[1] = test system: mixed cortical cells from P1 rats; experiment: Aβ1-42 oligomer cytotoxicity assay, MTT readout; format: cell-based, rat
Description: FIG. 2 provides graphs and immunocytochemical images corresponding to the experiments described in Example 6.3. […] An MTT assay was used to determine cell viability as described in the Methods section. The means (±SEM) of five independent experiments are shown. *P<0.05, **P<0.01. […] Neurotoxicity following extended Aβ1-42 oligomer treatment was tested by morphological analyses (C).
A non-specific IgG monoclonal antibody was used as a control in all experiments.
Rat primary cortical cultures were prepared from Sprague-Dawley rats (Charles River Laboratories L'Arbresle, France) at post-natal day 1, as described by Meberg and Miller (Meberg and Miller, 2003). Cerebellum and meninges were removed, and cortices were cut into small pieces and dissociated with enzymatic disruption at 37° C. in dissociation buffer (papaine, CaCl2, EDTA, and HEPES; all from Invitrogen, Carlsbad, Calif.). DNase (Invitrogen) was added for 10 min. Following dissociation, dispersed cortical neurons were plated onto poly-L-lysine (0.01%; mol. wt 150,000-300,000; Sigma) coated 6-well, 24-well, or 96-well tissue culture plates. For immunocytochemistry, cells were grown on coated glass coverslips, into 24-well plates. Cells were maintained in Neurobasal media (Invitrogen) without phenol-red, with the addition of L-glutamine (2 mM; Sigma), B27 supplement (Invitrogen), and penicillin/streptomycin (Sigma) in a humidified incubator at 37° C. and 5% CO2. Following 1 h and 30 min in culture, the media was replaced with astrocyte-conditioned medium. After a further 4 days in culture, cell proliferation was blocked by treatment with cytosine arabinoside (Ara-C) at 2.5 μM (Invitrogen). Under these culture conditions, 20% of cells were identified as neurons by NeuN/DAPI staining (not shown). Experiments using mixed cortical cultures were generally performed at days-in-vitro (“DIV”) 6 unless stated otherwise. Enriched microglia prepared from cortex and hippocampus were harvested as described for cortical cultures above. Cortex and hippocampus were put in DMEM containing high glucose and homogenized by pipetting with a 10 mL pipette and then with a syringe. The homogenate was centrifuged for 3 min at 1,000×g, and then resuspended in pre-warmed DMEM containing high glucose containing 10% FCS and penicillin/streptomycin (microglia media). The cell suspension was next transferred to a T75 tissue-culture flask and kept in a humidified incubator at 37° C. and 5% CO2 for 1 week. The flask was shaken to separate microglia from adherent cells, and collected and washed in DMEM. The resulting cells were resuspended in 1 mL microglia media, counted, and plated at 5×10^4 cells/well. To verify microglial enrichment, cells were stained with the astroglial and microglial markers GFAP and Iba1, respectively. Greater than 60% of cells stained positive for Iba1, with no cells staining for both GFAP and Iba1. Pure microglia were prepared from post-natal day 3 CX3CR1-GFP mice (Jackson Laboratories). Cortex and hippocampus were dissected and triturated in DMEM containing high glucose using a 10 mL pipette, and then with an 18 gauge needle. The homogenate was centrifuged for 3 min at 1,000 g, and then resuspended in pre-warmed DMEM containing high glucose, 10% FBS and penicillin/streptomycin (microglia media). The cell suspension was next transferred to a T75 tissue-culture flask and kept in a humidified incubator at 37° C. and 5% CO2 for 7-10 d. Microglia were isolated by shaking, collected and washed in DMEM. The resulting cells were resuspended in 1 mL microglia media, counted, and plated on tissue culture treated glass chamber slides at 5×10^4 cells/well for use in experiments.
The cytotoxicity of Aβ1-42 oligomers was tested on mixed cortical cultures at DIV 5. All antibodies, at a final concentration of 100 μg/mL, were co-incubated with Aβ1-42 oligomers for 30 min in serum-free cell culture medium at 37° C. before treatment of cells. […]

microglia = experiment: Confocal imaging of microglial uptake of Aβ1-42 oligomers; format: cell-based, rat; conditions: primary cortical microglia
Description: Aβ1-42 oligomers are shown in red, and blue is DAPI staining of DNA to show the microglia itself (A). An apical-to-distal slice was obtained from a three-dimensional image rendered from Z-stacks. Confocal imaging was performed on mixed cortical cells labeled for Aβ (red) and stained with DAPI (blue) as described in the Example Section under Materials and Methods. Microglia were identified and scanned for the maximum fluorescence intensity through a series of confocal stacks representing intracellular locations (B), and the total area of fluorescent signal above a minimum threshold was quantified (C). Each mark on the graph represents the total area of Aβ stained within a single cell. A minimum of 20 cells were analyzed for each treatment condition. Data were compared using one-way ANOVA followed by Tukey post-hoc multiple comparison. Means (±SEM) are shown. […] Red is Iba1 staining, green is HyLite Fluor-488-labeled Aβ1 42, and blue is DAPI staining. […] Statistical analysis was done using one-way ANOVA followed by Tukey post-hoc multiple comparison.
Cells were grown on a glass coverslips. Following treatment, cells were quickly washed with PBS and then fixed with 4% paraformaldehyde for 20 min. After thorough washes, cells were immersed in 100% methanol for 10 min at −20° C. They were then washed again and incubated in a blocking solution, PBS containing 10% normal goat serum for 1 h at room temperature. After an overnight incubation with the primary antibody, cells were washed and incubated for 2 h with the secondary antibody, then washed and mounted on glass slides using ProLong Gold antifade reagent (Invitrogen). Epifluorescence and confocal images were acquired on a LSM 700 inverted microscope from Zeiss, using a 63× lens. Fluorescence intensity was measured in cell bodies delineated by saturated epifluorescence pictures. Z-stacks were rendered into a three-dimensional image using ImageJ 1.42 (National Institutes of Health, freeware) from which an apical to distal slice containing the labeled proteins was obtained. Cells treated with HyLite Fluor-488-tagged Aβ1-42 were treated in the same way except no primary or secondary antibodies were used to label for Aβ1-42.

FcγRIIIa-V158 = target: T1, FcγRIIIa-V158 (Homo sapiens, UniProt P08637, F176V); experiment: FcγR binding ELISA, FcγRIIIa-V158; conditions: cross-linked IgG mAb
T1 construct: fusion proteins containing the extracellular domain of the receptor γ-chain
Description: The ability of these different monoclonal antibody backbones to internalize Aβ1-42 oligomers into microglia was then compared using confocal imaging on Aβ1-42 oligomer treated primary cortical microglia. […] To verify that microglia are indeed the cells taking up Aβ1-42 complexed to monoclonal antibodies, the study was repeated using HiLyte Fluor-488 tagged Aβ1-42 and co-stained for the microglial marker Iba1.
(§1) The binding of test antibodies to a panel of human Fcγ receptors (FcγRs) was measured using enzyme-linked immunosorbent assay (ELISA). Human FcγRs (Genentech, Inc., CA) are fusion proteins containing the extracellular domain of the receptor γ-chain with a Gly/6xHis/glutathione S transferase (GST) polypeptide tag at the C terminus. A monoclonal antibody with human IgG1 framework was used as the positive control (IgG1 control) in this experiment. Plates were coated with a mouse monoclonal anti GST antibody (Genentech, Inc.) in a 0.05 M sodium carbonate buffer (pH 9.6) overnight at 4° C. After blocking with an assay buffer containing phosphate buffered saline (PBS), 0.5% BSA, and 0.05% Tween-20, the plates were incubated with FcγRs at room temperature for 1 h. Human FcγRs were immobilized to the plate via interaction with the anti-GST coating. […] Diluted samples were applied as monomeric forms for the high affinity receptor (FcγRIa), or multimeric forms for the low affinity receptors (FcγRIIa, FcγRIIb, and FcγRIIIa). […] The antibodies bound to the FcγRs were detected with horseradish peroxidase (HRP)-conjugated F(ab′)2 fragment of goat anti human F(ab′)2 (Jackson ImmunoResearch Laboratories; West Grove, Pa.). […] The reaction was terminated with 1 M H3PO4, and absorbance at 450 nm with reference at 650 nm was measured on a plate reader (Molecular Devices, Sunnyvale, Calif.). Binding curves were generated by plotting the mean absorbance values from duplicates of sample dilutions against the respective sample absorbance.

[2] = test system: human Fcγ receptors (FcγRIa, FcγRIIa, FcγRIIb, FcγRIIIa); experiment: FcγR binding ELISA, panel of human Fcγ receptors; conditions: cross-linked antibody
Description: FIG. 10 provides graphs and immunocytochemical images corresponding to the experiments described in Example 6.5. […] These findings are consistent with published data for human IgG4 antibodies (Gessner et al., 1998) and IgG1 antibodies carrying the D265A mutation (Shields et al., 2001).
as §1, with “FcγRIIIa). The multimeric forms of test antibodies were generated by cross linking F(ab′)2 fragment of goat anti human κ-chain (MP Biomedicals, Solon, Ohio), with test monoclonal antibody at an approximate molar ratio of 3:1. The plates were incubated with FcγRs at room temperature for 2 h.” for “FcγRIIIa).”

T1 sequence (P08637 17-208 F176V): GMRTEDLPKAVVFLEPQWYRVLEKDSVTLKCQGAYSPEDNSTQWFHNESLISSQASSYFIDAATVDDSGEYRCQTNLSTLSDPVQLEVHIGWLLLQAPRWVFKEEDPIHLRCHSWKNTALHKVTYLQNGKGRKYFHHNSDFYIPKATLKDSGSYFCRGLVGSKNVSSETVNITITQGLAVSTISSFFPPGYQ

binding to FcγRIIIa-V158, hierarchy (FcγRIIIa-V158): MABT-IgG>MABT>MABT-IgG1-D265A
Substance: MABT-IgG1-D265A: same antigen binding sequences as MABT on human IgG1 backbone carrying a D265A mutation that dramatically reduces FcγR-binding
antibody-mediated increase in MTT signal under p38MAPK inhibition ([1]; 10 μM Aβ1-42 oligomers, 100 μg/ml antibody, 1 μM SB239063, 24 h): no effect
reversal of Aβ1-42 oligomer-mediated toxicity ([1]; mixed primary cortical cultures, different IgG backbones): only a non-significant trend towards reversal
Aβ1-42 oligomer internalization into microglia, rank order (microglia): MABT-IgG1>MABT>MABT-IgG1-D265A
binding to FcγRs [2]: substantially reduced binding to all the FcγRs
